Patent US20240335541A1, “NANOMATERIALS COMPRISING DIAMINES” (Beam Therapeutics Inc., priority 2021, published 2024)

What was measured:
[1] = LNP hydrodynamic diameter and PDI by DLS (Example 16 LNPs, Stunner); type: physicochemical; conditions: Example 16 LNPs: 47.5% Ionizable Lipid: 40% cholesterol: 2.5% PEG-2000 DMG: 10% DPSC, N/P 4-8
Experimental: (§1) LNPs were prepared with 47.5% Ionizable Lipid (e.g., a compound provided herein): 40% cholesterol: 2.5% PEG-2000 DMG: 10% DPSC and an N/P ratio range of 4-8. LNPs were formed by microfluidic mixing of the lipid and NA solutions using a Precision Nanosystems NanoAssemblr Spark or Benchtop series Instruments, according to the manufacturer's protocol. A ratio of aqueous to organic solvent of approximately 2:1 or 3:1 was maintained during mixing using differential flow rates. After mixing, LNPs were collected, diluted in phosphate buffer saline (PBS) or Tris-buffered saline (TBS) (approximately 1:1 v/v). Further buffer exchange was conducted using dialysis in PBS or TBS at 4° C. for 4 to 24 hours against a 20 kDa filter. After this initial dialysis, each individual LNP preparation was characterized via dynamic light scattering (DLS) to measure the size (e.g., diameter) and polydispersity. LNPs falling within specific diameter and polydispersity ranges were pooled, and further dialyzed against PBS or TBS at 4° C. for 1 to 4 hours against a 100 kDa dialysis cassette. After the second dialysis, LNPs were sterile filtered using 0.22 μm filter and stored at 4° C. for further use.
LNP hydrodynamic diameter and polydispersity index (PDI) were measured using high throughput dynamic light scattering (DLS) (Stunner, Unchained Labs). LNPs were diluted 1×TBS or PBS to an appropriate concentration and analyzed.

[2] = LNP encapsulation efficiency by Ribogreen assay (Example 16 LNPs); type: physicochemical; conditions: Example 16 LNPs: 47.5% Ionizable Lipid: 40% cholesterol: 2.5% PEG-2000 DMG: 10% DPSC, N/P 4-8
Experimental: as §1
RNA concentration and encapsulation efficiency were determined by Ribogreen assay (BioTek Synergy LX plate reader).

Compound	Mean Diameter [1] [nm]	Mean PDI [1]	Mean Encapsulation Efficiency [2] [%]
CC/C=C\CCCCOC(CCC(=O)OCCCCCCN(CCO)CCCN(CCCCCC(=O)OCCCCCCCCC)CCCCCC(=O)OCCCCCCCCC)OCCCC/C=C\CC [Example 7-5, dinonyl 6,6′-((3-((6-((4,4-bis(((Z)-oct-5-en-1-yl)oxy)butanoyl)oxy)hexyl)(2-hydroxyethyl)amino)propyl)azanediyl)dihexanoate]	81.3	0.12	49.0
CC/C=C\CCCCOC(CCC(=O)OCCCCCCCN(CCO)CCCN(CCCCCCCCCOC(=O)C(CCCC)CCCCCC)CCCCCCCCCOC(=O)C(CCCC)CCCCCC)OCCCC/C=C\CC (stereo not drawn) [Example 7-25]	92.4	0.13	62.8
CC/C=C\CCCCOC(CCC(=O)OCCCCCCN(CCO)CCCN(CCCCCCOC(=O)C(CCCC)CCCCCC)CCCCCCOC(=O)C(CCCC)CCCCCC)OCCCC/C=C\CC (stereo not drawn) [Example 7-7]	83.4	0.08	57.4
CC/C=C\CCCCOC(CCC(=O)OCCCCCCN(CCO)CCCN(CCCCCCOC(=O)CCC(OCCCC/C=C\CC)OCCCC/C=C\CC)CCCCCCOC(=O)CCC(OCCCC/C=C\CC)OCCCC/C=C\CC)OCCCC/C=C\CC [Example 7-1]	90.2	0.12	80.8
CC/C=C\CCCCOC(CCC(=O)OCCCCCCCN(CCCCCCCOC(=O)CCC(OCCCC/C=C\CC)OCCCC/C=C\CC)CCCN(CCCO)CCCCCCCC(=O)OCCCCCCCCC)OCCCC/C=C\CC [Example 7-28, ((3-((3-hydroxypropyl)(8-(nonyloxy)-8-oxooctyl)amino)propyl)azanediyl)bis(heptane-7,1-diyl) bis(4,4-bis(((Z)-oct-5-en-1-yl)oxy)butanoate)]	98.8	0.11	49.6
CC/C=C\CCCCOC(CCC(=O)OCCCCCCN(CCCO)CCN(CCCCCCOC(=O)C(CCCC)CCCCCC)CCCCCCOC(=O)C(CCCC)CCCCCC)OCCCC/C=C\CC (stereo not drawn) [Example 7-20]	97.0	0.17	71.4
CC/C=C\CCCCOC(CCC(=O)OCCCCCCN(CCO)CCCN(CCCCCCCC(=O)OCCCCCCCCC)CCCCCCCC(=O)OCCCCCCCCC)OCCCC/C=C\CC [Example 7-6]	85.7	0.10	46.0
CC/C=C\CCCCOC(CCC(=O)OCCCCCCCN(CCCO)CCN(CCCCCCCCCOC(=O)C(CCCC)CCCCCC)CCCCCCCCCOC(=O)C(CCCC)CCCCCC)OCCCC/C=C\CC (stereo not drawn) [Example 7-27]	81.7	0.11	63.3
CC/C=C\CCCCOC(CCC(=O)OCCCCCCCN(CCCO)CCCN(CCCCCCCOC(=O)CCC(OCCCC/C=C\CC)OCCCC/C=C\CC)CCCCCCCOC(=O)CCC(OCCCC/C=C\CC)OCCCC/C=C\CC)OCCCC/C=C\CC [Example 7-29]	95.4	0.13	83.2
CC/C=C\CCCCOC(CCC(=O)OCCCCCCN(CCCO)CCN(CCCCCCOC(=O)CCC(OCCCC/C=C\CC)OCCCC/C=C\CC)CCCCCCOC(=O)CCC(OCCCC/C=C\CC)OCCCC/C=C\CC)OCCCC/C=C\CC [Example 7-16]	91.3	0.11	81.8
CC/C=C\CCCCOC(CCC(=O)OCCCCCCCN(CCCCCCCOC(=O)CCC(OCCCC/C=C\CC)OCCCC/C=C\CC)CCCN(CCO)CCCCCCCCCOC(=O)C(CCCC)CCCCCC)OCCCC/C=C\CC (stereo not drawn) [Example 7-24, ((3-((9-((2-butyloctanoyl)oxy)nonyl)(2-hydroxyethyl)amino)propyl)azanediyl)bis(heptane-7,1-diyl) bis(4,4-bis(((Z)-oct-5-en-1-yl)oxy)butanoate)]	92.7	0.12	72.4
CC/C=C\CCCCOC(CCC(=O)OCCCCCCN(CCCO)CCN(CCCCCCCCCOC(=O)C(CCCC)CCCCCC)CCCCCCCCCOC(=O)C(CCCC)CCCCCC)OCCCC/C=C\CC (stereo not drawn) [Example 7-21]	87.1	0.12	60.9
CC/C=C\CCCCOC(CCC(=O)OCCCCCCCN(CCCCCCCOC(=O)CCC(OCCCC/C=C\CC)OCCCC/C=C\CC)CCN(CCO)CCCCCCCCCOC(=O)C(CCCC)CCCCCC)OCCCC/C=C\CC (stereo not drawn) [Example 7-26, ((2-((9-((2-butyloctanoyl)oxy)nonyl)(2-hydroxyethyl)amino)ethyl)azanediyl)bis(heptane-7,1-diyl) bis(4,4-bis(((Z)-oct-5-en-1-yl)oxy)butanoate)]	82.5	0.12	69.2
CC/C=C\CCCCOC(CCC(=O)OCCCCCCCN(CCO)CCCN(CCCCCCOC(=O)C(CCCC)CCCCCC)CCCCCCOC(=O)C(CCCC)CCCCCC)OCCCC/C=C\CC (stereo not drawn) [Example 7-9]	89.2	0.11	69.4
CC/C=C\CCCCOC(CCC(=O)OCCCCCCN(CCCCCCOC(=O)CCC(OCCCC/C=C\CC)OCCCC/C=C\CC)CCCN(CCO)CCCCCCCC(=O)OCCCCCCCCC)OCCCC/C=C\CC [Example 7-3, ((3-((2-hydroxyethyl)(8-(nonyloxy)-8-oxooctyl)amino)propyl)azanediyl)bis(hexane-6,1-diyl) bis(4,4-bis(((Z)-oct-5-en-1-yl)oxy)butanoate)]	69.1	0.13	85.1
